Measurements published in patent US10568886B2, “Targeting Cyb5R3” (University of Pittsburgh—Of the Commonwealth System of …, priority 2014, dated 2020).

Columns and labels:
[1] = tested on: oxidized sGC; experiment: Purified Cyb5R3/oxidized sGC cGMP assay stimulated with Bay 58-2667; type: biochemical; details: 100 nM Bay 58-2667, in the presence of Cyb5R3
Protocol: FIG. 4. Purified Cyb5R3 directly reduces oxidized sGC resulting in limited stimulation by the sGC activator Bay 58-2667. Purified Cyb5R3, Cyb5b and oxidized sGC were mixed and incubated in trienthanolamine buffer, DTT (positive control), ZINC 747 (Cyb5R3 inhibitor), +/−NADH (required co-factor for Cyb5R3) in the absence of oxygen. Samples were then combined with GTP, and Mn^2+ followed by stimulation with 100 nM Bay 58-2667. After 5 min, reactions were stopped and samples were measured for cGMP. Quantification of cGMP is shown in the graph (n=2). Error bars represent s.e.m.

[2] = tested on: primary rat VSMs; experiment: Rescue of sGC protein degradation by Bay 58-2667 in VSMs (Western blot); type: cell-based; details: Cyb5R3 knockdown or ZINC 747 treated VSMs
Text: FIG. 7. Bay 58-2667 rescues sGC protein degradation following Cyb5R3 knockdown or activity inhibition. a, Western blot analysis for sGC expression in primary rat VSMs treated with and without Bay 58-2667 following Cyb5R3 knockdown or with ZINC 39395747 (b). Quantification of sGC expression is shown in the graph below (n=2). Error bars represent s.e.m.
It was therefore tested if Bay 58 2667 could rescue the effects caused by decreased Cyb5R3 expression and activity.

[3] = tested on: sGC-Cyb5R3 macromolecular complexes; experiment: Proximity ligation assay for sGC-Cyb5R3 complexes in VSMs; type: cell-based; details: ODQ 10 μM, 10 min, primary rat aortic VSMs
Text: FIG. 2. […] Cells were then subjected to a proximity ligation assay and imaged using confocal microscopy for sGC-Cyb5R3 macromolecular complexes (red punctates). Quantification of complexes per nuclei is shown in graph (n=3). **** indicates significance of <0.0001 and error bars are s.e.m. […] Following ODQ treatment, VSMs were fixed and subjected to a proximity ligation assay (PLA) to determine the association between oxidized sGC and Cyb5R3.

[4] = biological target: T1, purified human CyB5R3 (Homo sapiens, UniProt P00387); experiment: NADH-ferricyanide reductase activity inhibition assay with purified Cyb5R3; type: biochemical; details: for Cyb5R3 inhibitory activity, SAR trend of phenyl substituents: para position: carbon, chlorine, bromine
T1 construct: His6 (N); made in house; host or cells: E. coli SoluBL21 (Genlantis)
T1 sequence (P00387 1-301): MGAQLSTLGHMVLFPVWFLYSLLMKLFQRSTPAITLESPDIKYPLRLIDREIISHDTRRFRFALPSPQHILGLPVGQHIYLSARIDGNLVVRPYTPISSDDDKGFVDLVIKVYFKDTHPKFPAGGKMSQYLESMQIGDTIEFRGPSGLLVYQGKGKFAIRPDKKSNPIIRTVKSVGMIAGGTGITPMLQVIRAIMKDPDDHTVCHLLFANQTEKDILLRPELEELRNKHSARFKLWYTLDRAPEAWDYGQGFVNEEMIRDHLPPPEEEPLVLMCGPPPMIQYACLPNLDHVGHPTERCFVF
Protocol: FIG. 13. […] Primary screen using purified human CyB5R3 was incubated with each compound (500 μM) followed by activity measurements with an NADH-ferricyanide reductase assay. […] Purified proteins were prepared as previously described in Sparacino-Watkins et al. Briefly, human Cyb5R3 gene was cloned into the pET28a plasmid containing a His6 tag on the N-terminus of Cyb5R3. The plasmid was transformed into SoluBL21 cells (Genlantis) and protein purification was carried out as previously described. […] Chromatographic separation was conducted with an Äkta-Purifier FPLC (GE Healthcare Life Sciences, USA) running Unicorn software version 5.1. Metal affinity chromatography resin, Ni-NTA superflow (Qiagen), was packed into a XK 26/20 column (GE). Protein identity was confirmed with liquid chromatography and tandem mass spectrometry (LC-MS/MS, University of Pittsburgh Genome and Protein Core Facilities). The NADH-ferricyanide reductase activity for purified Cyb5R3 was assayed by spectrophotometric measurements using the rate of potassium ferricyanide reduction at 420 nm, according to Strittmatter and […]. […] The reaction was started by addition of cofactor NADH and reduction of ferricyanide was followed for 2 min by recording the absorbance decrease at 420 nm using Cary 50 spectrophotometer and small glass cuvettes with a 0.2 cm path length. Since NADH has partial reduction power independent of Cyb5R3, the reaction rate was corrected by subtracting the reaction rate of ferricyanide in the absence of enzyme. The enzyme activity was calculated using the extinction coefficient of 1.02 mM^-1 cm^-1 for the difference in absorbance between reduced and oxidized form of ferricyanide. In order to observe the inhibitory effect of each Cyb5R3 small molecule inhibitor, the compounds were pre-incubated with Cyb5R3 at 37° C. for 15 minutes followed by measurements in NADH-ferricyanide reductase activity as described above.

[5] = biological target: T1, purified human CyB5R3; experiment: as above; type: biochemical; details: 50 μM of each compound
[6] = tested on: Cyb5R3; details: previous studies; cited from earlier work

Structure (SMILES)	inhibition of CyB5R3, secondary screen [5]	inhibition of CyB5R3, primary screen ([4]; 500 μM of each compound)	also measured
O=C(O)CCCCN(CCc1ccccc1OCc1ccc(CCc2ccccc2)cc1)Cc1ccc(C(=O)O)cc1 [Bay 58-2667, cinaciguat]			cGMP production on Bay 58-2667 stimulation [1]: does not increase cGMP production; sGC protein levels [2]: restoration of sGC protein levels
O=c1onc2cnc3ccccc3n12 [ODQ, 1H-(1,2,4)oxadiazolo[4,3-a]quinoxalin-1-one]			number of sGC-Cyb5R3 macromolecular complexes [3]: increases number of macromolecular complexes
CCCc1cc(=O)[nH]c(=S)[nH]1 [PTU, propylthiouracil, reference compound]	little inhibition		inhibition at 500 µM ([4]; 500 μM of each compound, read-out: inhibition of CyB5R3, primary screen): ~100%; concentration showing inhibition of Cyb5R3 [6]: approximately 275 μM
O=c1cc(CSc2ccccc2)[nH]c(=S)[nH]1 [ZINC05626394]	100%	100%	
C[C@@H]1N=C(CSc2ccccc2)CC(=O)N1 [ZINC05774833]		abolished all inhibitory effects	
Cc1ccc(SCc2cc(=O)[nH]c(=S)[nH]2)cc1 [ZINC06493891]			Cyb5R3 inhibitory activity, SAR trend of phenyl substituents [4]: activity increases with atomic mass
CCCCCOc1cc(=O)[nH]c(=S)[nH]1 [ZINC13957379]		100%	
O=c1cc(CSc2ccc(Br)cc2)[nH]c(=S)[nH]1 [ZINC15987502]			Cyb5R3 inhibitory activity, SAR trend of phenyl substituents [4]: activity increases with atomic mass
O=c1cc(CSc2ccccc2)[nH]c(=O)[nH]1 [ZINC17744101]	50%	100%	
CC(C)SCc1cc(=O)[nH]c(=S)[nH]1 [ZINC31773411]		100%	
